According to patent publication US7691818B2, “Peptidomimetic inhibitors of retroviral proteases and their use as antivirals” (Universita' Degli Studi Di Treiste, priority 2004, dated 2010):

These molecules were tested against HIV-1 recombinant protease (Human immunodeficiency virus type 1 group M subtype B, UniProt P04585) (assay: biochemical).
Protocol: Inhibitory activity was measured in accordance with the method described by A. Tossi et al. (Eur. J. Biochem., 2000, 267, 1715) using an HIV-1 recombinant protease supplied by Bioczech (Prague, CZ) and the fluorogenic substrate Abz-Thr-Ile-Nle-Phe(p-NO2)-Gln-Arg-NH2 (abbreviated hereinafter as Abz-NF*-6) supplied by Bachem (Bubendorf, CH). Specifically, 189 μL of a 30 μM solution of Abz-NF*-6 in a 100 mM MES-NaOH buffer (pH 5.5) containing NaCl (400 mM), EDTA (1 mM), DTT (1 mM) and BSA (1 mg/mL) are incubated at 25° C. in a cuvette placed directly in the spectrofluorimeter, irradiated at 325 mn and checking that there is no increase of emission at 420 nm due to the spontaneous hydrolysis of the substrate. After 1.5 minutes 11 μL of a standard solution of HIV-PR (0.4 mg/mL) in the same buffer are added and the variation in fluorescence, due to catalysed hydrolysis of the Abz-NF*-6 substrate, is recorded for 1 minute. 2 μL of the inhibitor solution in DMSO or MES buffer are then added and the variation in fluorescence over time due to hydrolysis of the Abz-NF*-6 substrate in the presence of the specific inhibitor is recorded.
Molecule `CCC(C)C(NC(=O)C(NC(C)=O)C(C)C)C(=O)N1CCC[C@H]1[C@H](O)[C@@H](O)[C@H](Cc1ccccc1)NC(=O)C(CC(N)=O)NC(=O)C(CC(C)C)NC(=O)C(CO)NC(C)=O` (stereo partly drawn) [(21), NH-Ac-Ser-Leu-Asn-Phe-[φ]-Pro-Ile-Val-NH-Ac] has an IC50 of 0.61 nM. For `CC(=O)N[C@@H](Cc1c[nH]c2ccccc12)C(=O)N[C@H](C(=O)N[C@@H](Cc1ccccc1)[C@H](O)[C@@H](O)[C@@H]1CCCN1C(=O)[C@@H](NC(=O)[C@H](Cc1c[nH]c2ccccc12)NC(C)=O)C(C)C)C(C)C` [(22), NH-Ac-Trp-Val-Phe-[φ]-Pro-Val-Trp-NH-Ac], the IC50 was 0.06 nM. `Cc1cccc(C)c1OCC(=O)N[C@@H](Cc1ccccc1)[C@H](O)[C@@H](O)[C@@H]1CCCN1C(=O)COc1c(C)cccc1C` [(23), DmPoa-Phe-[φ]-Pro-DmPoa] showed an IC50 of 9.6 nM. `CC(=O)NC(Cc1c[nH]c2ccccc12)C(=O)NC(C(=O)N1CCC[C@H]1[C@H](O)[C@@H](O)[C@H](Cc1ccccc1)NC(=O)COc1c(C)cccc1C)C(C)C` (stereo partly drawn) [(24), DmPoa-Phe-[φ]-Pro-Val-Trp-NH-Ac] gave an IC50 of 75.3 nM. `Cc1cccc(C)c1OCC(=O)N[C@@H](Cc1ccccc1)[C@H](O)[C@@H](O)[C@@H]1CCCN1C(=O)COc1ccccc1` [(25), DmPoa-Phe-[φ]-Pro-Poa] gave an IC50 of 84.7 nM.
